Conditions: 20 mmol/liter acetic acid-sodium acetate buffer pH 3.6, 40° C., 25 hr
Source text: The titanium oxide complex particles and the dihydroxyphenylpropionic acid obtained in Example 1 were mixed together in 1) a 20 mmol/liter acetic acid-sodium acetate buffer solution (pH=3.6), 2) a 20 mmol/liter MES buffer solution (manufactured by Dojindo; pH=6.0), and 3) a 20 mmol/liter HEPES buffer solution (manufactured by Dojindo; pH=8.1) so that the final concentration of the titanium oxide complex particles and the final concentration of the dihydroxyphenylpropionic acid in the resultant mixed solutions were 2% and 50 mmol/liter, respectively. The total volume of each of the mixed solution was adjusted to 0.8 ml.
The adjusted solutions were stirred at 40° C. for 25 hr. For each solution, an absorption spectrum was measured in an ultraviolet-visible range (200 to 600 nm) with an ultraviolet-visible spectrometer.

O=C(O)CCc1ccc(O)c(O)c1 [dihydroxyphenylpropionic acid]
Change in absorption spectrum versus zero hr: little or no change was observed in the absorption spectrum
